# Test results taken from patent publication US20220017483A1, “AMINOPYRIDINE COMPOUND, PREPARATION METHOD THEREFOR AND USE THEREOF” (SICHUAN-KELUN-BIOTECH BIOPHARMACEUTICAL CO., LTD, priority 2018, published 2022).
# Read-outs that look alike come from different tables or passages of the source.
# Experiments:
# [1] = target: T1, A2a receptor cell membrane (human origin) (Homo sapiens, UniProt P29274); test: Competitive inhibition constant (Ki) for adenosine A2a receptor, [3H]-CGS-21680 radioligand binding; settings: for Ki(A1)/Ki(A2a): selectivity ratio A1 over A2a
# T1 construct: purchased PerkinElmer RBHA2AM400UA
# T1 sequence (P29274 whole entry): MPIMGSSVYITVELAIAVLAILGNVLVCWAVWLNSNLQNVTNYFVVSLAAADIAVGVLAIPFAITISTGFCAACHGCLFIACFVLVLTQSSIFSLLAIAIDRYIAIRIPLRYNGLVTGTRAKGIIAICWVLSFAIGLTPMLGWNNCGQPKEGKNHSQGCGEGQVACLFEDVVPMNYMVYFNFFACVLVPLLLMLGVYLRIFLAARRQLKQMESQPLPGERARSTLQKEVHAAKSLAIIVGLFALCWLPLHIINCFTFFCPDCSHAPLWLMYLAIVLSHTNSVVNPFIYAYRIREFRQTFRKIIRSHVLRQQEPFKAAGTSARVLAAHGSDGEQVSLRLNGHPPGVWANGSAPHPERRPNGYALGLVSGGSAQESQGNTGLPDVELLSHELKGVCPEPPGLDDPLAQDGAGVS
# Method: A2a receptor cell membrane (human origin): PerkinElmer, RBHA2AM400UA
# A2a test buffer: 50 mM Tris-HCl, 10 mM MgCl2, 1 mM EDTA, pH7.4
# (§1) The A1 receptor cell membrane was diluted to 0.025 μg/μl with the A1 test buffer and the A2a receptor cell membrane was diluted to 0.05 μg/μl with the A2a test buffer to obtain an A1 receptor cell membrane dilution and an A2a receptor cell membrane dilution.
# (§2) The tested compound and CGS15943 were gradiently diluted with DMSO. 1 μl test compound, high-value control (0.5% DMSO), low-value control (1000 nM CGS15943) were added to a 96-well plate, wherein each well was added with 100 μl A1 receptor cell membrane dilution (containing 2.5 μg cell membrane) to obtain an A1 detection plate. Through the same steps, 100 μl A2a receptor cell membrane dilution (containing 5.0 μg cell membrane) was added to each well of a 96-well plate to obtain an A2a detection plate.
# The A1 and A2a detection plates were sealed with a tap, and incubated at room temperature for 1 h and 2 h, respectively.
# (§3) Unifilter-96 GF/C filter plate was prepared. The Unifilter-96 GF/C filter plate was added with 50 μl 0.3% PEI in each well, and incubated at room temperature for no less than 0.5 h.
# (§4) After the incubation, the reaction solutions in the A1 detection plate and the A2a detection plate were transferred to two Unifilter-96 GF/C filter plates. The filter plates were washed with the corresponding pre-cooled washing buffers, then oven dried. After sealing the bottom of the filter plates, 50 μl of Microscint 20 cocktail scintillation fluid was added. After sealing the top of the filter plates, the plates were read in the counter MicroBeta2 Reader.
# (§5) Data analysis: The inhibition rate was calculated according to the following formula:
# (§6) Inhibition rate %=100−(the signal value of the tested wells−the signal average of the low-value control)/(the signal average of the high-value control−the signal average of the low-value control)*100.
# (§7) IC50 was fitted by EXCEL XLfit. The competitive inhibition constant (Ki) was calculated according to the formula: Ki=IC50/(1+the concentration of the isotope-labelled ligands/Kd); Kd is the dissociation constant of the isotope-labeled ligands.
# [2] = target: T2, A1 receptor cell membrane (human origin) (Homo sapiens, UniProt P30542); test: Competitive inhibition constant (Ki) for adenosine A1 receptor, [3H]-DPCPX radioligand binding; settings: [3H]-DPCPX 1.0 nM
# T2 construct: purchased PerkinElmer ES-010-M400UA
# T2 sequence (P30542 1-326): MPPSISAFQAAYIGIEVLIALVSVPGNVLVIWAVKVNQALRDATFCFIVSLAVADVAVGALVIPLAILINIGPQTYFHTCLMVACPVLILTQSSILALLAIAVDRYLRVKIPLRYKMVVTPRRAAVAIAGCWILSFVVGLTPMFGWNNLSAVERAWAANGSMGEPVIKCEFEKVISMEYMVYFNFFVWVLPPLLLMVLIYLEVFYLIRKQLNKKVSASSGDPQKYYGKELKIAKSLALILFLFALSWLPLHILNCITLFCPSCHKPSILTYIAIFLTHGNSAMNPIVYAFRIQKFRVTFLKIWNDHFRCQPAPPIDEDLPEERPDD
# Method: Experimental Example 1: Determination of the Competitive Inhibition Constant (Ki) for Adenosine A1 and A2a Receptors
# [^3H]-DPCPX: PerkinElmer, NET974250UC
# A1 receptor cell membrane (human origin): PerkinElmer, ES-010-M400UA
# A1 test buffer: 25 mM HEPES, 5 mM MgCl2, 1 mM CaCl2, 100 mM NaCl, pH7.4
# A1 washing buffer: 25 mM HEPES, 5 mM MgCl2, 1 mM CaCl2, 100 mM NaCl, pH7.4
# as §1, §2
# 100 μl of radioisotope-labelled ligand [^3H]-DPCPX (diluted in A1 test buffer, working concentration 1.0 nM) was added to the A1 detection plate, and 100 μl of radioisotope-labelled ligand [^3H]-CGS-21680 (diluted in A2a test buffer, working concentration 6.0 nM) was added to the A2a detection plate. The A1 and A2a detection plates were sealed with a tap, and incubated at room temperature for 1 h and 2 h, respectively.
# as §3, §4, §5, §6, §7
# [3] = human A2a receptor cell membrane, [3H]-CGS-21680 6.0 nM, read-out: Ki(A2a)
Structure (SMILES),Ki(A1)/Ki(A2a) [1],Ki [2],"Ki [1, 3]",Ki [1]
"COCCn1cc(-c2cc(-c3ccc4ncnc(C)c4c3)c(-c3ccc(F)cc3)nc2N)cn1 [Compound 17, 6-(4-fluorophenyl)-3-(1-(2-methoxyethyl)-1H-pyrazol-4-yl)-5-(4-methylquinazolin-6-yl)pyridin-2-amine]",137.3,316 nM,–,2.3 nM
"Cc1ncnc2ccc(-c3cc(Br)c(N)nc3-c3ccc(F)cc3)cc12 [Compound 2, 3-bromo-6-(4-fluorophenyl)-5-(4-methylquinazolin-6-yl)pyridin-2-amine]",112.1,291 nM,2.6 nM,–
"Cc1ccnc2ccc(-c3cc(C(N)=O)c(N)nc3-c3ccc(F)cc3)cc12 [Compound 22, 2-amino-6-(4-fluorophenyl)-5-(4-methylquinolin-6-yl)nicotinamide]",66.3,106 nM,1.6 nM,–
"Cc1ncnc2ccc(-c3cc(-n4cc(C(N)=O)cn4)c(N)nc3-c3ccc(F)cc3)cc12 [Compound 24, 1-(2-amino-6-(4-fluorophenyl)-5-(4-methylquinazolin-6-yl)pyridin-3-yl)-1H-pyrazol-4-carboxamide]",150.0,3480 nM,23.2 nM,–
"Cc1ncnc2ccc(-c3cc(-c4nnn[nH]4)c(N)nc3-c3ccc(F)cc3)cc12 [Compound 9, 6-(4-fluorophenyl)-5-(4-methylquinazolin-6-yl)-3-(1H-tetrazol-5-yl) pyridin-2-amine]",85.3,1070 nM,12.6 nM,–
"Cc1ncnc2ccc(-c3cc(-c4nnc(C(N)=O)o4)c(N)nc3-c3ccc(F)cc3)cc12 [Compound 25, 5-(2-amino-6-(4-fluorophenyl)-5-(4-methylquinazolin-6-yl)pyridin-3-yl)-1,3,4-oxadiazol-2-carboxamide]",57.6,132 nM,2.3 nM,–
"Cc1ncnc2ccc(-c3cc(-c4cnn(C)c4)c(N)nc3-c3ccc(F)cc3)cc12 [Compound 8, 6-(4-fluorophenyl)-3-(1-methyl-1H-pyrazol-4-yl)-5-(4-methylquinazolin-6-yl)pyridin-2-amine]",148.5,713 nM,4.8 nM,–
"Cc1ncnc2ccc(-c3cc(-c4cnn(CCN(C)C)c4)c(N)nc3-c3ccc(F)cc3)cc12 [Compound 16, 3-(1-(2-(dimethylamino)ethyl)-1H-pyrazol-4-yl)-6-(4-fluorophenyl)-5-(4-methylquinazolin-6-yl)pyridin-2-amine]",82.6,1380 nM,16.7 nM,–
"Cc1ccnc2ccc(-c3cc(-c4cnn(CCC(N)=O)c4)c(N)nc3-c3ccc(F)cc3)cc12 [Compound 31, 3-(4-(2-amino-6-(4-fluorophenyl)-5-(4-methylquinolin-6-yl)pyridin-3-yl)-1H-pyrazol-1-yl)propionamide]",91.0,146 nM,–,1.6 nM
"Cc1ccnc2ccc(-c3cc(-c4nnc(C(N)=O)o4)c(N)nc3-c3ccc(F)cc3)cc12 [Compound 29, 5-(2-amino-6-(4-fluorophenyl)-5-(4-methylquinolin-6-yl)pyridin-3-yl)-1,3,4-oxadiazol-2-carboxamide]",25.0,30 nM,1.2 nM,–
"Cc1ncnc2ccc(-c3ccc(N)nc3-c3ccc(F)cc3)cc12 [Compound 1, 6-(4-fluorophenyl)-5-(4-methylquinazolin-6-yl)pyridin-2-amine]",339.0,–,–,–
"Cc1cc(-c2cc(-c3cnn(CCC(N)=O)c3)c(N)nc2-c2ccc(F)cc2)cc(Cl)n1 [Compound 30, 3-(4-(6-amino-2′-chloro-2-(4-fluorophenyl)-6′-methyl-[3,4′-bipyridine]-5-yl)-1H-pyrazol-1-yl)propionamide]",38.0,1930 nM,–,50.8 nM
"Cc1cc(-c2cc(-n3cc(C(N)=O)cn3)c(N)nc2-c2ccc(F)cc2)cc(Cl)n1 [Compound 26, 1-(6-amino-2′-chloro-2-(4-fluorophenyl)-6′-methyl-[3,4′-bipyridine]-5-yl)-1H-pyrazol-4-carboxamide]",–,4850 nM,104 nM,–
"CNC(=O)c1cc(-c2ccc3ncnc(C)c3c2)c(-c2ccc(F)cc2)nc1N [Compound 7, 2-amino-6-(4-fluorophenyl)-N-methyl-5-(4-methylquinazolin-6-yl) nicotinamide]",245.0,4950 nM,20.2 nM,–

# Now from value to compound, other results behind:
Ki(A1)/Ki(A2a) [1],Ki [2],"Ki [1, 3]",Structure (SMILES),Ki [1]
222.8,1090 nM,4.9 nM,"COC(=O)c1cc(-c2ccc3ncnc(C)c3c2)c(-c2ccc(F)cc2)nc1N [Compound 3, methyl 2-amino-6-(4-fluorophenyl)-5-(4-methylquinazolin-6-yl) nicotinate]",–
293.5,7510 nM,25.6 nM,"Cc1ncnc2ccc(-c3cc(C(=O)O)c(N)nc3-c3ccc(F)cc3)cc12 [Compound 4, 2-amino-6-(4-fluorophenyl)-5-(4-methylquinazolin-6-yl)nicotinic acid]",–
359.0,4380 nM,12.2 nM,"Cc1ncnc2ccc(-c3cc(C(N)=O)c(N)nc3-c3ccccc3F)cc12 [Compound 13, 2-amino-6-(2-fluorophenyl)-5-(4-methylquinazolin-6-yl) nicotinamide]",–
219.0,438 nM,2 nM,"Cc1ncnc2ccc(-c3c(Cl)cc(N)nc3-c3ccc(F)cc3)cc12 [Compound 10, 4-chloro-6-(4-fluorophenyl)-5-(4-methylquinazolin-6-yl)pyridin-2-amine]",–
146.5,205 nM,1.4 nM,"Cc1ncnc2ccc(-c3c(C#N)cc(N)nc3-c3ccc(F)cc3)cc12 [Compound 11, 6-amino-2-(4-fluorophenyl)-3-(4-methylquinazolin-6-yl) isonicotinonitrile]",–
0.2,25.7 nM,138 nM,"NC(=O)c1cc(-c2ccncc2)c(-c2cccc(F)c2)nc1N [Control compound 1, reference compound]",–
54.9,374 nM,6.8 nM,"Cc1ncnc2ccc(-c3cc(C(N)=O)c(N)nc3-c3cc(F)cc(F)c3)cc12 [Compound 12, 2-amino-6-(3,5-difluorophenyl)-5-(4-methylquinazolin-6-yl) nicotinamide]",–
325.3,683 nM,2.1 nM,"Cc1ncnc2ccc(-c3cc(C#N)c(N)nc3-c3ccc(F)cc3)cc12 [Compound 5, 2-amino-6-(4-fluorophenyl)-5-(4-methylquinazolin-6-yl) nicotinonitrile]",–
